The values below come from patent publication US10670605B2, “Cysteine reactive probes and uses thereof” (The Scripps Research Institute, priority 2015, dated 2020).

Common to all, as to experiment: Competitive isoTOP-ABPP in situ (fragment-treated cells)
Assay type in all cases: cell-based

For assay [1], the target named is T1, cysteines in MDA-MB-231 and Ramos cells (Homo sapiens, UniProt P11216).
T1 sequence (P11216 1-843): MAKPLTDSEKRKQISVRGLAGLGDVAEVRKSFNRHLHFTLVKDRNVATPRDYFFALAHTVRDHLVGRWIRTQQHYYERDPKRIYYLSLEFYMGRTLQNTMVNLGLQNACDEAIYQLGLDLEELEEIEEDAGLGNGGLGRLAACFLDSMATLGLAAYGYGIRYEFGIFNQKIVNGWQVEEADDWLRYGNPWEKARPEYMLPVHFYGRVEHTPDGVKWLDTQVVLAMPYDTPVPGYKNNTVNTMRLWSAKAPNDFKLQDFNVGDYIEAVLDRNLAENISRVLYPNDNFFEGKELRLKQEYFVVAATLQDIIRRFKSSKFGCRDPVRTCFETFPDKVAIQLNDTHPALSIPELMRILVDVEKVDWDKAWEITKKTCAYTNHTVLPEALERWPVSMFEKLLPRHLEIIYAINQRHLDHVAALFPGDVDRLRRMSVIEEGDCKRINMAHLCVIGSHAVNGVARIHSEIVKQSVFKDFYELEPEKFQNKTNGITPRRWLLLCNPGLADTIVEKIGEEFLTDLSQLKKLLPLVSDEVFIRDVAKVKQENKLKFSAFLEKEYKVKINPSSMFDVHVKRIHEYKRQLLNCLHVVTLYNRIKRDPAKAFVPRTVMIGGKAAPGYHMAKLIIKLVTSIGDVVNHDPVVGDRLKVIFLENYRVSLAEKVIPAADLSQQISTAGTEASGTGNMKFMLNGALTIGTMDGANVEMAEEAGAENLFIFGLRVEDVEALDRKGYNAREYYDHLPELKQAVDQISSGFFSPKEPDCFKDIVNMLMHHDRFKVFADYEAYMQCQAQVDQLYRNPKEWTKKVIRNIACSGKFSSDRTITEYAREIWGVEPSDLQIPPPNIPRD

For assay [2], the target named is T2, cysteines in MDA-MB-231 and Ramos cells (Homo sapiens, UniProt P30101).
T2 sequence (P30101 25-505): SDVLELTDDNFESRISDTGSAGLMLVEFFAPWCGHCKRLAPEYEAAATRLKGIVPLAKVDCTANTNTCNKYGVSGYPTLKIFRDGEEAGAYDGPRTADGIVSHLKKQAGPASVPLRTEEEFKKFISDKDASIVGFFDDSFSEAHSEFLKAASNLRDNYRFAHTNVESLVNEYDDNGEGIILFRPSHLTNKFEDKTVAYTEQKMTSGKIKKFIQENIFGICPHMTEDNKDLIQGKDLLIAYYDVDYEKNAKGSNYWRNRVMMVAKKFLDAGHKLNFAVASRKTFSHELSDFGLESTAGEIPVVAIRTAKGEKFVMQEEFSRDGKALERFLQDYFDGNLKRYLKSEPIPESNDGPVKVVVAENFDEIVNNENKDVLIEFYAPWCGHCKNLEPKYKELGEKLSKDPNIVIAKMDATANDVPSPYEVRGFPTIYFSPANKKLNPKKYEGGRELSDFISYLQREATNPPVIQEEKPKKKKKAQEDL

In assay [3] the target is cysteines in MDA-MB-231 and Ramos cells (Homo sapiens, UniProt P61978).
Assay [4] addresses cysteines in MDA-MB-231 and Ramos cells (Homo sapiens, UniProt Q15021).
The target in assay [5] is T3, cysteines in MDA-MB-231 and Ramos cells (Homo sapiens, UniProt Q15084).
T3 sequence (Q15084 20-440): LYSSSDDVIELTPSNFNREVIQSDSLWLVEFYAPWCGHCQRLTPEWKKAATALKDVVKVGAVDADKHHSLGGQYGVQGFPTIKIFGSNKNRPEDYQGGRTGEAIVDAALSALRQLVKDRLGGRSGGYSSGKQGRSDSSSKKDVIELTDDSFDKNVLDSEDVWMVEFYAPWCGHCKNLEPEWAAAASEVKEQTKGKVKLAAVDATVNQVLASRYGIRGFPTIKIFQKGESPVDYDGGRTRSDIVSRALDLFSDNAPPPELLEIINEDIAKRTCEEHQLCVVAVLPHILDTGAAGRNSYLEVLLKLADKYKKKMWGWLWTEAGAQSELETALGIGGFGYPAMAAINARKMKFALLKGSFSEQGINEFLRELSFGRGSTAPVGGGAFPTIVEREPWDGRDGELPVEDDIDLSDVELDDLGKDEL

The target of assay [6] is T4, cysteines in MDA-MB-231 and Ramos cells (Homo sapiens, UniProt Q9ULW0).
T4 sequence (Q9ULW0 1-747): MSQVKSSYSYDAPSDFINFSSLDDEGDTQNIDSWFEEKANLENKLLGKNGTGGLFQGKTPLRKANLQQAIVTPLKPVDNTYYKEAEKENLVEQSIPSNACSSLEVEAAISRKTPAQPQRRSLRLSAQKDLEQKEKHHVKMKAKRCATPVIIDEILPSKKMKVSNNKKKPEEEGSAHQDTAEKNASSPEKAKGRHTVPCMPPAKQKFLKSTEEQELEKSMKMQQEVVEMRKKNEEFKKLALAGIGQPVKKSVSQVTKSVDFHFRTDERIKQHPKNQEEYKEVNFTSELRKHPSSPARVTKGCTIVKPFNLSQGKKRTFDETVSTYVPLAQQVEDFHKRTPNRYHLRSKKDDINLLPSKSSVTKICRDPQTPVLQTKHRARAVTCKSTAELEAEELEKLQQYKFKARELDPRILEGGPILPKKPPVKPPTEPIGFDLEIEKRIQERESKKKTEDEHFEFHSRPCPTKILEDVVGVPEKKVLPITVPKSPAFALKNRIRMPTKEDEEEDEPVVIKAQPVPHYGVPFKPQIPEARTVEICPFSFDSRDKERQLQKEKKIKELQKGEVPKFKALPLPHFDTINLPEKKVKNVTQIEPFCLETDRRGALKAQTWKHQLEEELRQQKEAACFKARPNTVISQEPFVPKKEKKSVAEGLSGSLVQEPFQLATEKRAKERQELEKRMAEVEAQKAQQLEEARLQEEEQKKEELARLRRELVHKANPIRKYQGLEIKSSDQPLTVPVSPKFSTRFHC

cysteines in MDA-MB-231 and Ramos cells (Homo sapiens, UniProt Q15021), sequence (Q15021 whole entry): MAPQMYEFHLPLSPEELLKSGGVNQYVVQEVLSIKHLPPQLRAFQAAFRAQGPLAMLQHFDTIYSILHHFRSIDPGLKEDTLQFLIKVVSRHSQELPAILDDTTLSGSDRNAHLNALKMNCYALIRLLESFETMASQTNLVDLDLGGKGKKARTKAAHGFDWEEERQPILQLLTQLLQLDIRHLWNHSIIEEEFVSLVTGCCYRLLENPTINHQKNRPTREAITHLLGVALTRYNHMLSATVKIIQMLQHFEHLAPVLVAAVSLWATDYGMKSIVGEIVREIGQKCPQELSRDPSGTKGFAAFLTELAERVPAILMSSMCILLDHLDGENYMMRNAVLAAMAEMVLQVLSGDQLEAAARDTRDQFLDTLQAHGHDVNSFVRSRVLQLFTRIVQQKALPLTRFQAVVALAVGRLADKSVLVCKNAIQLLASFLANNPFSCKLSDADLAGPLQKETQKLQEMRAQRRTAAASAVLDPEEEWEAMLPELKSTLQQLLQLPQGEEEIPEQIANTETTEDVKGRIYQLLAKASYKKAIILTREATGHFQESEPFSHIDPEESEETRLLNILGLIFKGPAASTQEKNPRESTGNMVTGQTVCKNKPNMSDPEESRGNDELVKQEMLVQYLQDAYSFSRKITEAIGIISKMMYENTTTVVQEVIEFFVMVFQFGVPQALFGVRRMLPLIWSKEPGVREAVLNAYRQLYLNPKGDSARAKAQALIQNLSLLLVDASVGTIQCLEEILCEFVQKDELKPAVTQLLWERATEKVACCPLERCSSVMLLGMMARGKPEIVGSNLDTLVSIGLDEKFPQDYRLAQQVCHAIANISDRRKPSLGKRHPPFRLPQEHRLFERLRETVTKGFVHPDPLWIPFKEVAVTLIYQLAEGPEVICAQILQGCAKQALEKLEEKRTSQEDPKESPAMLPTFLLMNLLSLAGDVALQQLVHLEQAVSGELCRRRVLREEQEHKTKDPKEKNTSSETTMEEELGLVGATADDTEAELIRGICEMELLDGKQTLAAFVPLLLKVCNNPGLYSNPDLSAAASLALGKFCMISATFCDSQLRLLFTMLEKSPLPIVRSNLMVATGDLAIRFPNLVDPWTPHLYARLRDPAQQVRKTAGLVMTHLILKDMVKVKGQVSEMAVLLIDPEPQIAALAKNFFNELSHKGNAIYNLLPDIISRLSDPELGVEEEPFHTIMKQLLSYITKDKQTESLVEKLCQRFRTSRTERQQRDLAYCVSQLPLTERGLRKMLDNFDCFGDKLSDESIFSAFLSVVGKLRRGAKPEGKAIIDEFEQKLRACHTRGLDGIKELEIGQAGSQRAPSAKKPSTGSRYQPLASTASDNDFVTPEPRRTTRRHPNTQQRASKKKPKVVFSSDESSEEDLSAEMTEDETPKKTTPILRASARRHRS

With `Cn1cc(S(=O)(=O)N2CCOCC2)cc1C(=O)NC(=O)CCl` [compound 11], the “isoTOP-ABPP ratio P11216_C326” value in assay [1] (100 μM in situ 231) is reported as 0.8. In addition, in assay [2] (100 μM in situ 231), the “isoTOP-ABPP ratio P30101_C57” value worked out at 2.2. Also, the “isoTOP-ABPP ratio P61978_C132” value in assay [3] (100 μM in situ 231) came out at 0.9. In assay [4] (100 μM in situ 231), the “isoTOP-ABPP ratio Q15021_C439” value is 0.9. In assay [5] (100 μM in situ 231), the “isoTOP-ABPP ratio Q15084_C55” value is 4.3. Besides, the “isoTOP-ABPP ratio Q9ULW0_C536” value in assay [6] (100 μM in situ 231) is 1.4.
Consider `Cc1ccc(C=C(C#N)C(=O)NCCN2CCOCC2)cc1` [compound 41], for which the “isoTOP-ABPP ratio P11216_C326” value in assay [1] (200 μM, insitu, 231) was determined as 0.7. For the same molecule, in assay [2] (200 μM, insitu, 231), the “isoTOP-ABPP ratio P30101_C57” value is reported as 1.3 and the “isoTOP-ABPP ratio P30101_C406” value amounted to 1.0. Also, the “isoTOP-ABPP ratio P61978_C132” value in assay [3] (200 μM, insitu, 231) was 0.9. The “isoTOP-ABPP ratio Q15021_C439” value in assay [4] (200 μM, insitu, 231) worked out at 0.8. In assay [5] (200 μM, insitu, 231), the “isoTOP-ABPP ratio Q15084_C55” value came out at 0.9 and the “isoTOP-ABPP ratio, Q15084_C190” value turned out to be 0.9. Further, the “isoTOP-ABPP ratio Q9ULW0_C536” value in assay [6] (200 μM, insitu, 231) came to 1.2.
As to `C=CC(=O)Nc1cc(F)c(N2CCN(C(=O)OC(C)(C)C)CC2)c(F)c1` [compound 38], the “isoTOP-ABPP ratio P11216_C326” value in assay [1] (200 μM, insitu, 231) is on record as 1.2. For the same molecule, in assay [2] (200 μM, insitu, 231), the “isoTOP-ABPP ratio P30101_C57” value was 0.9 and the “isoTOP-ABPP ratio P30101_C406” value stood at 0.8. Further, the “isoTOP-ABPP ratio P61978_C132” value in assay [3] (200 μM, insitu, 231) was determined as 1.0. Also, the “isoTOP-ABPP ratio Q15021_C439” value in assay [4] (200 μM, insitu, 231) came to 1.1. In addition, in assay [5] (200 μM, insitu, 231), the “isoTOP-ABPP ratio Q15084_C55” value is recorded as 0.8 and the “isoTOP-ABPP ratio, Q15084_C190” value is 1.0. Besides, the “isoTOP-ABPP ratio Q9ULW0_C536” value in assay [6] (200 μM, insitu, 231) is 1.2.
On to `COc1cc2c(cc1OC)CN(C(=O)CCl)CC2` [compound 8], for which the “isoTOP-ABPP reactivity P11216_C326 PYGB” value in assay [1] (200 μM, insitu, 231) amounted to 20.0. In addition, in assay [2] (200 μM, insitu, 231), the “isoTOP-ABPP reactivity P30101_057 PDIA3” value is listed as 20.0 and the “isoTOP-ABPP reactivity P30101_C406 PDIA3” value is listed as 20.0. For the same molecule, the “isoTOP-ABPP reactivity P61978_C132 HNRNPK” value in assay [3] (200 μM, insitu, 231) amounted to 4.2. Besides, the “isoTOP-ABPP reactivity Q15021_C439 NCAPD2” value in assay [4] (200 μM, insitu, 231) came out at 0.6. For the same molecule, in assay [5] (200 μM, insitu, 231), the “isoTOP-ABPP reactivity Q15084_C55 PDIA6” value was determined as 4.4 and the “isoTOP-ABPP reactivity Q15084_C190 PDIA6” value worked out at 5.2. The “isoTOP-ABPP reactivity Q9ULW0_C536 TPX2” value in assay [6] (200 μM, insitu, 231) worked out at 20.0.
